# Key:
# TYK2 [1] = molecular target: T1, TYK2 (Homo sapiens, UniProt P29597); experiment: TYK2 protein degradation in NOMO-1 cells by immunoblotting; assay type: cell-based; set-up: endogenous in cells; conditions: NOMO-1 cells
# Protocol: NOMO-1 cells were treated with CPD-155, CPD-157, and CPD-158 at 0.1, 1, 10, 100 and 1000 nM concentrations for 16 hours. […] Data shown that CPD-155, CPD-157, and CPD-158 are very potent at the reduction protein levels of TYK2.
# MOLT-4 or NOMO-1 cells were cultured at 37° C. with 5% CO2 in RPMI 1640 Medium supplemented with 10% fetal bovine serum. Cells were authenticated using the short tandem repeat (STR) assays. Mycoplasma test results were negative.
# Cultured cells were washed with cold PBS once and lysed in cold RIPA buffer supplemented with protease inhibitors and phosphatase inhibitors (Beyotime Biotechnology). The solutions were then incubated at 4° C. for 30 minutes with gentle agitation to fully lyse cells. Cell lysates were centrifuged at 13,000 rpm for 10 minutes at 4° C. and pellets were discarded. Total protein concentrations in the lysates were determined by BCA assays (Beyotime Biotechnology). Cell lysates were mixed with Laemmli loading buffer to 1× and heated at 99° C. for 5 min. Proteins were resolved on SDS-PAGE and visualized by chemiluminescence. Images were taken by a ChemiDoc MP Imaging system (Bio-Rad). Protein bands were quantitated using the accompanied software provided by Bio-Rad.
# TYK2 [2] = molecular target: T1, TYK2; experiment: TYK2 protein degradation in MOLT-4 cells by immunoblotting; assay type: cell-based; set-up: endogenous in cells; host or cells: MOLT-4; conditions: MOLT-4 cells, 24 hours
# Summary of the method: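 MOLT-4 cells were exposed to compounds at 0.5 and 5 μM for 24 h, then lysed in RIPA buffer with protease and phosphatase inhibitors. TYK2 was detected by SDS-PAGE immunoblot with chemiluminescence, and band densitometry gave percent degradation.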
# T1 sequence (P29597 whole entry): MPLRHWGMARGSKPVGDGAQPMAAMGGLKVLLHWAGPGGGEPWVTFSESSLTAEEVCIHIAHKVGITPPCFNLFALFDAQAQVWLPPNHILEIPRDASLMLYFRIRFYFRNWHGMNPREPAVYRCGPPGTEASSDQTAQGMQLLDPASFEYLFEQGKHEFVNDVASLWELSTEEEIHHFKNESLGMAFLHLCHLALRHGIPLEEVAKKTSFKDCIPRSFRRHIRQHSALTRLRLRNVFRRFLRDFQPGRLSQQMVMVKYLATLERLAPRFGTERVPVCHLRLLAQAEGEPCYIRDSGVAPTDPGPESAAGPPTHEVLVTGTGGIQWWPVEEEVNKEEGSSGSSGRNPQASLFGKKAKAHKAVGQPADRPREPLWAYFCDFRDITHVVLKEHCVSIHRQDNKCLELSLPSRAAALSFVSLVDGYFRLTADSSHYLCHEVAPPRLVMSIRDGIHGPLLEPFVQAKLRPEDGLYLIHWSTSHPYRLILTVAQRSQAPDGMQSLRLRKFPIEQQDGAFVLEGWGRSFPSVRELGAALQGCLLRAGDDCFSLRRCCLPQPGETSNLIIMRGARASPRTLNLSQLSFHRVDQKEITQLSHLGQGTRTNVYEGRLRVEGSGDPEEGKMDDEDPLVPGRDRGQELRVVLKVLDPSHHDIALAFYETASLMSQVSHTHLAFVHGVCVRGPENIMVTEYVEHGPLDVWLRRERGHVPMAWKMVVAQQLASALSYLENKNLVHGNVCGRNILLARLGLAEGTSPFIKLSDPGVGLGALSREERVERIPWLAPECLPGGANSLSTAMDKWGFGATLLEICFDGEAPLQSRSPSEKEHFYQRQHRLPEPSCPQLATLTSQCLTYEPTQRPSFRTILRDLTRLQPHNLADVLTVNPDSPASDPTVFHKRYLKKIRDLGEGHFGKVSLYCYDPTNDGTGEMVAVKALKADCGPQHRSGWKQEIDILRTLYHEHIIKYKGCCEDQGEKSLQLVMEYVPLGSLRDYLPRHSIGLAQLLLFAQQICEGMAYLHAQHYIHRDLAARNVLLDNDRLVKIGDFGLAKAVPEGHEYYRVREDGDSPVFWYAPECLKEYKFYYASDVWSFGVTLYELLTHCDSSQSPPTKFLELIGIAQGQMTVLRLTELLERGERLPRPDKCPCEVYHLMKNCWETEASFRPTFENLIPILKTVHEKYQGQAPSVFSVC
SMILES,"TYK2 Degradation (NOMO-1, 10 nM) (TYK2 [1])","TYK2 Degradation (NOMO-1, 100 nM) (TYK2 [1])",TYK2 Degradation (0.5 μM) (TYK2 [2]; 0.5 μM) [%],TYK2 Degradation (5 μM) (TYK2 [2]; 5 μM) [%],other results
"CNC(=O)c1nnc(Nc2ccc(C(=O)NCC(=O)N[C@H](C(=O)N3C[C@H](O)C[C@H]3C(=O)N[C@@H](C)c3ccc(-c4scnc4C)cc3)C(C)(C)C)cn2)cc1Nc1cccc(-c2ncn(C)n2)c1OC [CPD-137, 6-((5-((2-(((S)-1-((2S,4R)-4-Hydroxy-2-(((S)-1-(4-(4-methylthiazol-5-yl)phenyl)ethyl)carbamoyl)pyrrolidin-1-yl)-3,3-dimethyl-1-oxobutan-2-yl)amino)-2-oxoethyl)carbamoyl)pyridin-2-yl)amino)-4-((2-methoxy-3-(1-methyl-1H-1,2,4-triazol-3-yl)phenyl)amino)-N-methylpyridazine-3-carboxamide]",C (C: ≤20% TYK2 degradation),A (A: ≥60% TYK2 degradation),,,
"CNC(=O)c1cnc(Nc2ccc(N3CCN(C(=O)CCCCCCC(=O)N[C@H](C(=O)N4C[C@H](O)C[C@H]4C(=O)N[C@@H](C)c4ccc(-c5scnc5C)cc4)C(C)(C)C)CC3)cn2)cc1Nc1ccccc1OC [CDD-170, 6-((5-(4-(8-(((S)-1-((2S,4R)-4-hydroxy-2-(((S)-1-(4-(4-methylthiazol-5-yl)phenyl)ethyl)carbamoyl)pyrrolidin-1-yl)-3,3-dimethyl-1-oxobutan-2-yl)amino)-8-oxooctanoyl)piperazin-1-yl)pyridin-2-yl)amino)-4-((2-methoxyphenyl)amino)-N-methylnicotinamide]","B (B: <60% TYK2 degradation, and >20% TYK2 degradation)",A (A: ≥60% TYK2 degradation),,,
"CNC(=O)c1nnc(Nc2ccc(C#CC3CN(C(=O)CCCCCCC(=O)N[C@H](C(=O)N4C[C@H](O)C[C@H]4C(=O)N[C@@H](C)c4ccc(-c5scnc5C)cc4)C(C)(C)C)C3)cn2)cc1Nc1cccc(-c2ncn(C)n2)c1OC [CPD-125, 6-((5-((1-(8-(((S)-1-((2S,4R)-4-hydroxy-2-(((S)-1-(4-(4-methylthiazol-5-yl)phenyl)ethyl)carbamoyl)pyrrolidin-1-yl)-3,3-dimethyl-1-oxobutan-2-yl)amino)-8-oxooctanoyl)azetidin-3-yl)ethynyl)pyridin-2-yl)amino)-4-((2-methoxy-3-(1-methyl-H-1,2,4-triazol-3-yl)phenyl)amino)-N-methylpyridazine-3-carboxamide]",A (A: ≥60% TYK2 degradation),A (A: ≥60% TYK2 degradation),,,
"CNC(=O)c1nnc(Nc2ccc(CNC(=O)CCCCC(=O)N[C@H](C(=O)N3C[C@H](O)C[C@H]3C(=O)N[C@@H](C)c3ccc(-c4scnc4C)cc3)C(C)(C)C)cn2)cc1Nc1cccc(-c2ncn(C)n2)c1OC [CPD-129, N1-((S)-1-((2S,4R)-4-Hydroxy-2-(((S)-1-(4-(4-methylthiazol-5-yl)phenyl)ethyl)carbamoyl)pyrrolidin-1-yl)-3,3-dimethyl-1-oxobutan-2-yl)-N6-((6-((5-((2-methoxy-3-(1-methyl-1H-1,2,4-triazol-3-yl)phenyl)amino)-6-(methylcarbamoyl)pyridazin-3-yl)amino)pyridin-3-yl)methyl)adipamide]",C (C: ≤20% TYK2 degradation),A (A: ≥60% TYK2 degradation),,,
"CNC(=O)c1nnc(Nc2ccc(C(=O)NCCCCCC(=O)N[C@H](C(=O)N3C[C@H](O)C[C@H]3C(=O)N[C@@H](C)c3ccc(-c4scnc4C)cc3)C(C)(C)C)cn2)cc1Nc1cccc(-c2ncn(C)n2)c1OC [CPD-141, 6-((5-((6-(((S)-1-((2S,4R)-4-Hydroxy-2-(((S)-1-(4-(4-methylthiazol-5-yl)phenyl)ethyl)carbamoyl)pyrrolidin-1-yl)-3,3-dimethyl-1-oxobutan-2-yl)amino)-6-oxohexyl)carbamoyl)pyridin-2-yl)amino)-4-((2-methoxy-3-(1-methyl-1H-1,2,4-triazol-3-yl)phenyl)amino)-N-methylpyridazine-3-carboxamide]","B (B: <60% TYK2 degradation, and >20% TYK2 degradation)",A (A: ≥60% TYK2 degradation),,,
"CNC(=O)c1nnc(Nc2ccc(C#CC3CN(C(=O)CCCCC(=O)N[C@H](C(=O)N4C[C@H](O)C[C@H]4C(=O)N[C@@H](C)c4ccc(-c5scnc5C)cc4)C(C)(C)C)C3)cn2)cc1Nc1cccc(-c2ncn(C)n2)c1OC [CPD-123, 6-((5-((1-(6-(((S)-1-((2S,4R)-4-Hydroxy-2-(((S)-1-(4-(4-methylthiazol-5-yl)phenyl)ethyl)carbamoyl)pyrrolidin-1-yl)-3,3-dimethyl-1-oxobutan-2-yl)amino)-6-oxohexanoyl)azetidin-3-yl)ethynyl)pyridin-2-yl)amino)-4-((2-methoxy-3-(1-methyl-1H-1,2,4-triazol-3-yl)phenyl)amino)-N-methylpyridazine-3-carboxamide]","B (B: <60% TYK2 degradation, and >20% TYK2 degradation)",A (A: ≥60% TYK2 degradation),,,
"CNC(=O)c1nnc(Nc2ccc(C#CC3CN(C(=O)CCCCCCCC(=O)N[C@H](C(=O)N4C[C@H](O)C[C@H]4C(=O)N[C@@H](C)c4ccc(-c5scnc5C)cc4)C(C)(C)C)C3)cn2)cc1Nc1cccc(-c2ncn(C)n2)c1OC [CPD-126, 6-((5-((1-(9-(((S)-1-((2S,4R)-4-hydroxy-2-(((S)-1-(4-(4-methylthiazol-5-yl)phenyl)ethyl)carbamoyl)pyrrolidin-1-yl)-3,3-dimethyl-1-oxobutan-2-yl)amino)-9-oxononanoyl)azetidin-3-yl)ethynyl)pyridin-2-yl)amino)-4-((2-methoxy-3-(1-methyl-H-1,2,4-triazol-3-yl)phenyl)amino)-N-methylpyridazine-3-carboxamide]",A (A: ≥60% TYK2 degradation),A (A: ≥60% TYK2 degradation),,,
"CNC(=O)c1nnc(NC(=O)CNC(=O)CCNc2ccc3c(c2)C(=O)N(C2CCC(=O)NC2=O)C3=O)cc1Nc1cccc(-c2ncn(C)n2)c1OC (stereo not drawn) [CPD-055, 6-(2-(3-((2-(2,6-Dioxopiperidin-3-yl)-1,3-dioxoisoindolin-5-yl)amino)propanamido)acetamido)-4-((2-methoxy-3-(1-methyl-1H-1,2,4-triazol-3-yl)phenyl)amino)-N-methylpyridazine-3-carboxamide]",,,≤20,≤20,
"CNC(=O)c1nnc(NC(=O)CNC(=O)CCC(=O)N[C@H](C(=O)N2C[C@H](O)C[C@H]2C(=O)NCc2ccc(-c3scnc3C)cc2)C(C)(C)C)cc1Nc1cccc(-c2ncn(C)n2)c1OC [CPD-034, N^1—((S)-1-((2S,4R)-4-Hydroxy-2-((4-(4-methylthiazol-5-yl)benzyl)carbamoyl)pyrrolidin-1-yl)-3,3-dimethyl-1-oxobutan-2-yl)-N^4-(2-((5-((2-methoxy-3-(1-methyl-1H-1,2,4-triazol-3-yl)phenyl)amino)-6-(methylcarbamoyl)pyridazin-3-yl)amino)-2-oxoethyl)succinamide]",,,≤20,≤20,
"CNC(=O)c1nnc(NC(=O)CNC(=O)CCCCNc2ccc3c(c2)C(=O)N(C2CCC(=O)NC2=O)C3=O)cc1Nc1cccc(-c2ncn(C)n2)c1OC (stereo not drawn) [CPD-057, 6-(2-(5-((2-(2,6-Dioxopiperidin-3-yl)-1,3-dioxoisoindolin-5-yl)amino)pentanamido)acetamido)-4-((2-methoxy-3-(1-methyl-1H-1,2,4-triazol-3-yl)phenyl)amino)-N-methylpyridazine-3-carboxamide]",,,≤20,≤20,
"CNC(=O)c1nnc(Nc2ccc(N3CCN(C(=O)CCCC(=O)N[C@H](C(=O)N4C[C@H](O)C[C@H]4C(=O)NCc4ccc(-c5scnc5C)cc4)C(C)(C)C)CC3)cn2)cc1Nc1cccc(-c2ncn(C)n2)c1OC [CPD-097, 6-((5-(4-(5-(((S)-1-((2S,4R)-4-Hydroxy-2-((4-(4-methylthiazol-5-yl)benzyl)carbamoyl)pyrrolidin-1-yl)-3,3-dimethyl-1-oxobutan-2-yl)amino)-5-oxopentanoyl)piperazin-1-yl)pyridin-2-yl)amino)-4-((2-methoxy-3-(1-methyl-1H-1,2,4-triazol-3-yl)phenyl)amino)-N-methylpyridazine-3-carboxamide]",,,,,"TYK2 Degradation (MOLT-4, 0.5 μM) (TYK2 [2]; 0.5 μM): B (B: <60% TYK2 degradation, and >20% TYK2 degradation); TYK2 Degradation (MOLT-4, 5 μM) (TYK2 [2]; 5 μM): C (C: ≤20% TYK2 degradation)"
"CNC(=O)c1nnc(NC(=O)CNC(=O)CCOCCOCCOCCNc2cccc3c2C(=O)N(C2CCC(=O)NC2=O)C3=O)cc1Nc1cccc(-c2ncn(C)n2)c1OC (stereo not drawn) [CPD-051, 6-(1-((2-(2,6-Dioxopiperidin-3-yl)-1,3-dioxoisoindolin-4-yl)amino)-12-oxo-3,6,9-trioxa-13-azapentadecan-15-amido)-4-((2-methoxy-3-(1-methyl-1H-1,2,4-triazol-3-yl)phenyl)amino)-N-methylpyridazine-3-carboxamide]",,,≤20,≤20,

# From patent publication US20240059671A1, “TYROSINE KINASE 2 (TYK2) DEGRADATION COMPOUNDS AND METHODS OF USE” (CULLGEN (SHANGHAI), INC., priority 2020, published 2024)
